Where “and” joins values, the source holds several entries; their conditions need not be identical. Identical values can stand only once.
How the values were obtained:
[1] = target: 5-HT4A receptors (Homo sapiens, UniProt Q13639); details: cited from earlier work
[2] = target: 5-HT3A receptors (Homo sapiens, UniProt P46098); details: cited from earlier work
[3] = target: 5-HT1C (Homo sapiens, UniProt P28335); test: radioligand selectivity, 5-HT1C receptors; assay type: binding; details: read-out: pKi at 5-HT1C (converted)
5-HT1C, sequence (P28335 33-458, species assumed): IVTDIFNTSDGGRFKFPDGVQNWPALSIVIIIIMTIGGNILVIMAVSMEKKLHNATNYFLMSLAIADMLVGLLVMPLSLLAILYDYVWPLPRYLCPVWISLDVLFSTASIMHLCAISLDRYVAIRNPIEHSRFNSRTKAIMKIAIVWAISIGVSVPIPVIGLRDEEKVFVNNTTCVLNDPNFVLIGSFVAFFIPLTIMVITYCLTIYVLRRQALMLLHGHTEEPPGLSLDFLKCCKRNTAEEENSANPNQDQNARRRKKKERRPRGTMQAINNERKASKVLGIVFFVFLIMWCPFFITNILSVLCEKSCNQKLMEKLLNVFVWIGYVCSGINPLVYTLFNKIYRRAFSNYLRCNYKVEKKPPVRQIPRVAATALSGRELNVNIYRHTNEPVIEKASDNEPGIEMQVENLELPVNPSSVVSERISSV

[4] = target: 5-HT1A (Homo sapiens, UniProt P08908); test: radioligand selectivity, 5-HT1A receptors; assay type: binding; details: read-out: pKi at 5-HT1A (converted)
5-HT1A, sequence (P08908 whole entry, species assumed): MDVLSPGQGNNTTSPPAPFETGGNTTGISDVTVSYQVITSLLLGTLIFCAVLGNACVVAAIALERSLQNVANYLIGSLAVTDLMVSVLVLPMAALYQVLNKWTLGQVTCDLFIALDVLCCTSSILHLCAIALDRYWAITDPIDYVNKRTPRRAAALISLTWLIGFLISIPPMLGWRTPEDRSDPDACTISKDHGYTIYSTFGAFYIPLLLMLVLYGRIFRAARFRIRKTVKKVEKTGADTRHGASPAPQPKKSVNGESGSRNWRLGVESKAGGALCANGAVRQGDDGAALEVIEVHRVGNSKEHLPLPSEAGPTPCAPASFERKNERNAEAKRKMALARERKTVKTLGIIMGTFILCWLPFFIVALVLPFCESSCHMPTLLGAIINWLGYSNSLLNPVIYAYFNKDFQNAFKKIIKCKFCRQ

[5] = target: piglet hippocampal 5-HT4 receptors (Sus scrofa, UniProt Q6Q253); test: binding to piglet hippocampal 5-HT4 receptors, 125I-labelled SB-207710; details: piglet hippocampal membranes, n=4
piglet hippocampal 5-HT4 receptors, sequence (Q6Q253 1-402): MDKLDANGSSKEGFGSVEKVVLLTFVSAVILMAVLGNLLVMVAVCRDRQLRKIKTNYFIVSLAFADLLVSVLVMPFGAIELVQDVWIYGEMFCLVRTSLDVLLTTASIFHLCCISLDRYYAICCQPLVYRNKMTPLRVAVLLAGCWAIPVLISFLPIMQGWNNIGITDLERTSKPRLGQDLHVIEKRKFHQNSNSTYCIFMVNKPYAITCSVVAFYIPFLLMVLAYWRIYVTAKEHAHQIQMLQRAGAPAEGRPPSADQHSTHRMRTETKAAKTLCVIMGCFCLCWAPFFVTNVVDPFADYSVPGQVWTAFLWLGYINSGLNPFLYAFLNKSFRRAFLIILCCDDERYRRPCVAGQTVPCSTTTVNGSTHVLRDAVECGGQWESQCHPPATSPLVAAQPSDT

[6] = test system: 5-HT-induced atrial arrhythmia in anesthetized Yucatan minipigs; test: 5-HT-induced atrial fibrillation / atrial remodelling after rapid atrial pacing in anesthetized Yucatan minipigs; assay type: in vivo, Yucatan minipig; details: for AERP (Example 2): sensitized pigs, predrug 90±3; for AF inducibility: 64±6% prior to treatment, 10 bursts of pacing; for mean duration of AF episodes: pre-drug 1.9±0.4
Method: The antiarrhythmic efficacy of SB-207266 (0.3 and 1.0 mg/kg, intravenous) was evaluated on the inducibility of AF in a model of 5-HT-induced atrial arrhythmia in anesthetized Yucatan minipigs. […] The atrial effective refractory period (AERP) and AF inducibility were determined during programmed stimulation and burst electrical pacing.
Animals. Male Yucatan minipigs (12-17 kg weight) were obtained from Charles River (Saint-Aubin les Elboeuf, France) and were maintained at rest over a 2-week acclimatision period prior to experiments.
Surgical Preparation of Animals. The minipigs (Charles River, France) were fasted and premedicated (2 mg/kg diazepam+15 mg/kg ketamine, i.m.) before induction of anesthesia by isoflurane inhalation (5% for induction followed by 0.5 to 1.5% for technical preparation) in a mixture of 25% O2 and 75% N2O. The long term anesthesia was maintained with an i.v. infusion of sodium pentobarbital (12 mg/kg/h). A mechanical ventilator (Harvard pump 613) was used to provide artificial respiration during the left thoracotomy in order to keep arterial blood gases and pH within the normal limits (ABL 500 analyzer). Fluid filled catheters were placed in the femoral artery and vein to measure the arterial pressure (P23 ID transducer) and for drug administrations, respectively. Leads II, III and a precordial lead of electrocardiogram were placed for monitoring of standard ECG parameters. Two pairs of electrodes were hooked to the left atrial wall for subsequent stimulation (S8800 stimulator and SIU-5 unit) and for measurement of an atrial electrogram.
Sensitization of the Atrial Tissue. The left atrial appendage was sensitized by rapid atrial pacing (200 ms cycle length over 3 hours) to generate an initial electrical remodelling of the tissue [A. Goette et al., 1996, Circulation, 94, 2968-2974]. […] The cellulose patch retains the 5-HT in contact with the tissue.
Electrophysiologic Study. The atrial effective refractory period (AERP) was determined using a conventional single extrastimulus technique as previously described [A. Bril, B. Gout et al., J. Pharmacol. Exp. Ther., 1996, 276, 637-646.]. Briefly, a 8-stimulus train at a basic cycle length 20% shorter than the sinus rhythm was followed by a single premature extrastimulus (4 ms, 1.5 times threshold current) introduced at progressively shorter coupling intervals from the atrial pacing until no atrial response was obtained.
After determination of AERP, the atrial fibrillation (AF) challenge was started. AF was induced following atrial pacing by a 2 sec-burst of stimulation (basic cycle length 20 ms cycle length, 2 ms duration, twice the diastolic threshold) introduced within the vulnerable window (AERP+10 ms). AF was defined as at least 1 sec of irregular electrical activity measured on atrial electrogram.
Study Design and Dosing. After assessment of reproducible baseline responses of animals (3 successive AF challenges), the minipigs were randomly assigned to receive either sterile distilled water (vehicle group, n=7), or escalating doses of SB-207266 (0.3 and 1.0 mg/kg, n=7) given i.v. over a 10 min period 15 min before determination of AERP and subsequent AF challenge. SB-207266 was dissolved in sterile distilled water and adequate drug solutions were prepared every day. Treatment with vehicle represented a volume of distilled water similar to that used for drug solution (10 ml). Each dose of SB-207266 was administered at 45 min intervals to allow recovery of animals from previous burst pacing challenge.
Measurements and Calculations. All parameters were monitored on a chart paper polyrecorder (TA-5000) and digital recording was performed throughout the protocol (DTR 1800). When measured, heart rate was calculated from the ECG and the mean arterial blood pressure was calculated from the pulse pressure. A corrected QT was determined according to the Bazett's formula (QTc=QT (ms)/RR (sec)^1/2). […]

[7] = test system: 5-HT-induced atrial arrhythmia in anesthetized Yucatan minipigs; test: as above; assay type: in vivo, Yucatan minipig; details: 5-HT alone, topical application for 3 hours, no pacing; control 110.2±1.9; not significant; n=6
[8] = preliminary studies of side-effects at human daily oral doses; assay type: in vivo; details: corresponds to about 1.6 to 1.7 mg/kg/day or more
[9] = target: T1, 5-HT4 receptor (Cavia porcellus, UniProt O70528); test: guinea pig distal colon longitudinal muscle-myenteric plexus, 5-HT-evoked contraction; assay type: cell-based
T1 construct: Longitudinal muscle-myenteric plexus preparations, approximately 3 cm long, are obtained from the distal colon region; from tissue; host or cells: guinea-pig distal colon longitudinal muscle-myenteric plexus
T1 sequence (O70528 whole entry): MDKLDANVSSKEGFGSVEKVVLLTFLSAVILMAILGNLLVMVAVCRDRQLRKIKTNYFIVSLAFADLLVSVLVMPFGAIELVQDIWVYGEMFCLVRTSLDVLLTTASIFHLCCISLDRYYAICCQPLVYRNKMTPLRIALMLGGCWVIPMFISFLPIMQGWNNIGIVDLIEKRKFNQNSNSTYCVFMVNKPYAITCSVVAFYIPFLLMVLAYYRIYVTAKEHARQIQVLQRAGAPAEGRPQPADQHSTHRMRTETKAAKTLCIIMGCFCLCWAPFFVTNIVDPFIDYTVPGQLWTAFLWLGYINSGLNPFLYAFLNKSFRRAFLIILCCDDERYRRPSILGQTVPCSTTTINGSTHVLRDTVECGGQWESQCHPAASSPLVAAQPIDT
Method: Male guinea-pigs, weighing 250-400 g are used.
In some experiments, this tissue was dosed alternately with an approximately equi-effective concentration of the nicotine receptor stimulant, dimethylphenylpiperazinium (DMPP).

[10] = plasma pharmacokinetics of SB 207266 on once daily oral dosing; assay type: in vivo, human
[11] = target: 5-HT4B receptor (Homo sapiens, UniProt Q13639); test: 5-HT4B receptor antagonism; assay type: biochemical
5-HT4B receptor, sequence (Q13639 whole entry): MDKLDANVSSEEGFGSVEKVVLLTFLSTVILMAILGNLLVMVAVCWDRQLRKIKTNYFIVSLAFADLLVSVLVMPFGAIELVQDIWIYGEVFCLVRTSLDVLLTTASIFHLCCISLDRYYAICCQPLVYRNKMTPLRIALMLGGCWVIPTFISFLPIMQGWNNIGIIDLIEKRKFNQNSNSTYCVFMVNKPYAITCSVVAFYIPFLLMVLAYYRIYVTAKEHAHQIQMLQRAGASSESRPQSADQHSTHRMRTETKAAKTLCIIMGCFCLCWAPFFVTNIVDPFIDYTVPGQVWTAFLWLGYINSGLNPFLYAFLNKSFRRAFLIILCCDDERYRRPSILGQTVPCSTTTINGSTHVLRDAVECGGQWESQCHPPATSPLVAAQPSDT

[12] = plasma concentration of SB-207266 in minipig (LC/MS/MS); assay type: in vivo, Yucatan minipig; details: 5 min after end of bolus
Method: Evaluation of Plasma Concentration of SB-207266. For each AF challenge, blood samples were collected on EDTA (6%) 5 min after the end of the bolus administration of drug (time point 15 min, see asterisks in FIG. 4A) and centrifuged (1500×g, 10 min at 4° C.). The plasma samples were stored at −80° C. for subsequent analysis. Plasma samples were not collected in the vehicle group. The determination of plasma concentration of SB-207266 was performed by LC/MS/MS with a LLQ for this assay of 5 ng/ml in the pig.

5-HT4A receptors, sequence (Q13639 1-387 isoform Q13639-2): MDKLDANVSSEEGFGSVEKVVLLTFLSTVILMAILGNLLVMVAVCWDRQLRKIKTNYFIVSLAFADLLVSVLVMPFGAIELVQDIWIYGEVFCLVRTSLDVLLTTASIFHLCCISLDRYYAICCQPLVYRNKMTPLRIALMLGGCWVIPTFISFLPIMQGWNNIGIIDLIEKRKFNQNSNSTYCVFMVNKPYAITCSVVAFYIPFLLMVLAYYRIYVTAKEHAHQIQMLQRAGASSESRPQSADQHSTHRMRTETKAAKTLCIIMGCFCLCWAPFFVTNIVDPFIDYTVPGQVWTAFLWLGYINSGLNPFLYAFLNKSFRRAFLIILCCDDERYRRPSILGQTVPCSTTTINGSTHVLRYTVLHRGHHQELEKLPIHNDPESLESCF
5-HT3A receptors, sequence (P46098 24-478): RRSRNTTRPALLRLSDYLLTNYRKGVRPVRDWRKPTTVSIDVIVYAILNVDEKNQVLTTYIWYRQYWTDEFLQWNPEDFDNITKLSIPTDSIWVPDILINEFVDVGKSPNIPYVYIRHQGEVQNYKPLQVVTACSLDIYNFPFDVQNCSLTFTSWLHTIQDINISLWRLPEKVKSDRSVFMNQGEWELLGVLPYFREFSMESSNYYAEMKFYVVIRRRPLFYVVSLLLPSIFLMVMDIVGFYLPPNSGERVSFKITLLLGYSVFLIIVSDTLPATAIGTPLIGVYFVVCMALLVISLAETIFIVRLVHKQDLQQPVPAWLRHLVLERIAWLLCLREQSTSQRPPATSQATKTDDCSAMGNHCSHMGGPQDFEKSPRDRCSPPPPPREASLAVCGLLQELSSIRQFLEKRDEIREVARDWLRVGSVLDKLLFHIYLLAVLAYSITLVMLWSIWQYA

SMILES: COc1[nH]c2ccc(F)cc2c1C(=O)OCC1CCN(CCNS(C)(=O)=O)CC1 [GR 125487, [1-[2-[(Methylsulphonyl)amino]ethyl]-4-piperidinyl]methyl 5-fluoro-2-methoxy-1H-indole-3-carboxylate]
- pKi at 5-HT4A receptors [1]: 10.0
- pKi at 5-HT3A receptors [2]: < 6.5

SMILES: Cc1noc(-c2ccccc2NC(=O)OCC2CCN(CCNS(C)(=O)=O)CC2)n1 [GR 138897, [1-[2-[(Methylsulphonyl)amino]ethyl]-4-piperidinyl]methyl[2-(3-methyl-1,2,4-oxadiazol-5-yl)phenyl]carbamate]
- pKi at 5-HT4A receptors [1]: 10.3
- pKi at 5-HT3A receptors [2]: < 5.0

SMILES: CCCCN1CCC(COC(=O)c2cc(I)c(N)c3c2OCCO3)CC1 [SB-207710, (1-butyl-4-piperidyl)methyl 8-amino-7-iodo-1,4-benzodioxan-5-carboxylate]
- Ki [3]: ≥ 1 µM
- Ki [4]: ≥ 1 µM
- Bmax of radioligand [5]: 16±3 fmol/mg protein

SMILES: NCCc1c[nH]c2ccc(O)cc12 [5-HT, reference compound]
- AERP ([6]; 5-HT applied after 3 h rapid atrial pacing, pacing alone 93.6±3.6): 91.8 ± 3.3 ms
- AERP (Example 1) ([6]; rapid atrial pacing and application of 5-HT, before vehicle or drug, from 111.6±2.6): 90.9 ± 2.1 ms
- AERP [7]: 104.0 ± 6.5 ms

SMILES: CCCCN1CCC(CNC(=O)c2c3n(c4ccccc24)CCCO3)CC1 [SB 207266, N-[(1-^nbutyl-4-piperidinyl)methyl]-3,4-dihydro-2H-[1,3]oxazino[3,2-a]indole-10-carboxamide]
- human daily oral dose that might give rise to certain side-effects [8]: ≥ 120 mg
- 5-HT4 receptor antagonist activity in guinea pig colon [9]: particularly good activity
- half-life ([10]; human, plasma, oral, read-out: elimination half-life T½): 20 to 24 h
- time to reach steady-state plasma concentrations ([10]; once daily dosing): 4 to 5 days
- plasma concentration on day 4 as share of the steady-state plasma concentration ([10]; once daily dosing, day 4): about 90%
- extent of accumulation ([10]; once daily oral dosing): approximately 1.5 fold
- 5-HT4B receptor antagonism [11]: 5-HT4B antagonist and found to antagonise 5HT4B receptors
- AERP (Example 1) ([6]; 0.3 mg/kg i.v., after pacing and 5-HT, pre-drug 90.0±2.7, p<0.01 vs vehicle): 102.3 ± 2.7 ms
- AERP (Example 2) ([6]; 0.3 mg/kg i.v.): 102 ± 3 ms
- AF inducibility ([6]; 0.3 mg/kg i.v.): 46±11%
- mean duration of AF episodes ([6]; 0.3 mg/kg i.v.): 1.1 ± 0.4 s and 1.1 ± 0.2 s
- decrease in AERP caused by rapid atrial pacing plus 5-HT application ([6]; 1.0 mg/kg i.v.): fully restored
- AERP (Example 1) ([6]; 1.0 mg/kg i.v., after pacing and 5-HT, pre-drug 90.0±2.7, p<0.01 vs vehicle): 110.0 ± 3.6 ms
- AERP (Example 2) ([6]; 1.0 mg/kg i.v.): 110 ± 4 ms
- AF inducibility ([6]; 1.0 mg/kg i.v.): 30±9%
- mean duration of AF episodes ([6]; 1.0 mg/kg i.v.): No further reduction
- plasma level of SB-207266 ([12]; 0.3 mg/kg i.v., n=6): 137.7 ± 15.2 ng/mL
- plasma level of SB-207266 ([12]; 1.0 mg/kg i.v., n=5): 562.3 ± 40.1 ng/mL
